# Earlier results as cited in patent US12636263B2, “Carotenoid compound coming from plant and containing natural astaxanthin, preparation method therefor, and composition” (Zhejiang Medicine Co., Ltd. Xinchang Pharmaceutical Factory, priority 2013, dated 2026).
# Legend:
# [1] = in animal body
# [2] = in vivo; Johnson and An, Crit. Rev. Biotechnol, 1991
# [3] = versus natural VE
Structure (SMILES),"bioavailability, higher than that of (3 R, 3 R)′-configuration [1] [wt %]","bioavailability, higher than that of astaxanthin in the form of fatty acid ester [2]",oxidizability (antioxidant) relative to natural VE [3] [times]
"CC1=C(/C=C/C(C)=C/C=C/C(C)=C/C=C/C=C(C)/C=C/C=C(C)/C=C/C2=C(C)C(=O)[C@@H](O)CC2(C)C)C(C)(C)C[C@H](O)C1=O [(3 S, 3′S)-configuration, all-trans (3S, 3′S)-astaxanthin]",15,–,–
"CC1=C(/C=C/C(C)=C/C=C/C(C)=C/C=C/C=C(C)/C=C/C=C(C)/C=C/C2=C(C)C(=O)C(O)CC2(C)C)C(C)(C)CC(O)C1=O (stereo not drawn) [astaxanthin, 3,3′-dihydroxy-4,4′-diketo-β,β′-carotene]",–,higher than 15%,1000
